The record followed here is patent US12527846B2, “Immunodominant proteins and fragments in multiple sclerosis” (UNIVERSITÄT ZÜRICH, priority 2018, dated 2026).

Assay [1] has as its system TCC21.1. The assay is classed as cell-based, human. Here is the method:
TCC21.1 was then tested with the complete decapeptide positional scanning library (200 mixtures; i.e. mixtures representing the 10 positions of a 10-mer and in each of the fixed positions one of the 20 L-amino acids), presented by BCL expressing DRB1*15:01 class II molecules. A similar response pattern was obtained with IL-10 release. Next, a biometrical analysis scoring matrix was generated by assigning numerical values to the stimulatory potential of each of the 20 defined AAs in each of the ten positions of the decapeptide library as previously described (Zhao et al., 2001). Here, the values were calculated as the log base 10 of the median GM-CSF (pg/ml) secretion of three independent experiments in the presence of mixtures, minus the secretion in the absence of mixtures (FIG. 3B). Based on a model of independent contribution of individual AAs to peptide antigen recognition, the predicted stimulatory score of a given peptide is the sum of the matrix values of each AA contained in the peptide at each position (Zhao et al., 2001). […] Using the new “harmonic boost” frame 1 and frame 2 matrices, all natural overlapping 10-mers peptides derived from the UniProt human protein database were scored and ranked as schematically shown in FIG. 2. […]

The subject of assay [2] is TCC21.1. Nature of the assay: Intracellular cytokine staining of TCC21.1 after peptide stimulation. The assay is classed as cell-based, human. Here is the method:
Next, the response of TCC21.1 to GDP-L-fucose synthase peptides presented by autologous irradiated PBMCs and BCL was characterized. GDP-L-fucose synthase peptides presented by the two types of APCs were able to induce proliferation. The functional phenotype of this response was also analyzed. […] Unexpectedly, when peptides were presented by autologous BCL, they induced higher levels of IFNγ. In addition, TCC21.1 also released GM-CSF and IL-3 in response to GDP-L-fucose synthase peptides. The release of these two cytokines seems to be a specific feature of this TCC compared with other Th1, Th1* or Th1/2 TLCs that were generated from patients with different conditions. Intracellular cytokine staining confirmed the Th2 functional phenotype of TCC21.1 in response to GDP-L-fucose synthase (96-105, SEQ ID NO: 16). More than 60% of TCC21.1 cells were IL-4+ after stimulation with GDP-L-fucose synthase (96-105, SEQ ID NO: 16), while only around 12% were IFNγ+. Around 60% of the cells were GM-CSF+ and 47.7% of these also IL-4+.
For intracellular cytokine staining, TCC21.1 was analyzed 48 h after stimulation. After 5 h in presence of GolgiStop protein transport inhibitor (BD Biosciences), T cells were labeled with Live/Dead® Aqua (Invitrogen). Following fixation and permeabilization with Cytofix/Cytoperm (BD Biosciences), cells were stained with antibodies against CD4 (APC-Cy7, Biolegend), IFN-γ (FITC, Biolegend), IL-4 (PE, BD Bioscience), GM-CSF (APC, Biolegend) and IL-3 (PE, Biolegend) in PBS containing saponin and BSA, and analyzed by flow cytometry.

In assay [3] the test system is TCC21.1. In words: Proliferation of TCC21.1 in response to GDP-L-fucose synthase peptides presented by autologous APCs. The format is cell-based, human. The conditions noted are these: 15-mer peptides overlapping by 10 AAs, presented by autologous PBMCs.
For assay [4], the system named is TCC14. The following applies: read-out: EC50 (antigen avidity); dose titration, BLS DR2b, proliferation after 72 h.
The test system of assay [5] is TCC14. In words: Cytokine secretion of TCC14 on recognition of the RASGRP2 peptide. The assay is classed as cell-based, human. The conditions noted are these: data not shown.

Ends that are not written are not given here.

As to “VLHSAFEVGA (listed as Homo sapiens) [SEQ ID NO: 18]”, the “GM-CSF release by TCC21.1 (stimulatory capacity)” value in the assay with TCC21.1 [1] (individual decapeptides at 5 pg/ml, presented by BLS cells expressing DRB1*15:01) is recorded as “induced GM-CSF release”.

As usually defined, the EC50 is the concentration giving half of the maximal effect. Consider NVLHSAFEVG [SEQ ID NO: 16, NVLHSAFEVG], for which, in the assay with TCC21.1 [2], the “GM-CSF+ TCC21.1 cells also IL-4+” value is on record as 47.7%, the “TCC21.1 cells GM-CSF+” value is “Around 60%”, the “TCC21.1 cells IFNγ+” value is reported as “around 12%” and the “TCC21.1 cells IL-4+” value was “More than 60%”. The same sequence came in with an EC50 with TCC21.1 [1] of 0.2 µg/mL.

As to “NVLHSAFEVGARKVV (listed as Homo sapiens) [SEQ ID NO: 17]”, the “recognition by TCC21.1 (proliferation)” value in the assay with TCC21.1 [3] is reported as “recognized”.

With “VHMNDNVLHSAFEVG (listed as Homo sapiens) [SEQ ID NO: 14]”, the “recognition by TCC21.1 (proliferation)” value in the assay on TCC21.1 [3] is “recognized”.

With LVRYWISAFP [SEQ ID NO: 33, LVRYWISAFP], in the assay with TCC14 [4], the EC50 turned out to be 12 nM. The “cytokine secretion by TCC14” value in the assay with TCC14 [5] was “secretion of Th2 cytokines and also of IFN-γ”.
